Reference: patent publication US20180200233A1, “COMPOSITIONS FOR PREVENTING CANCERS ASSOCIATED WITH HUMAN PAPILLOMA VIRUSES” (Loma Linda University, priority 2015, published 2018)

Experiments:
[1] = system: caspase 8 level in SiHa cells; test: Immunoblot of caspase 8 level in SiHa cells; format: cell-based, human; settings: 50, 100 and 200 μM for 24 hr
Experimental: FIGS. 6A-B is an immunoblot and FIG. 6B is a graph showing that treatment with myricetin and spinacine (5) increased cellular levels of caspase 8 and p53. (FIG. 6A) SiHa cells (1×10^6 per well) were seeded into a 6-well plate and allowed to incubate overnight. The indicated concentrations of myricetin and spinacine were added, then cells were incubated for 24 h. Cells were then washed in 1×PBS, then harvested and the resulting level of caspase 8 was measured by immunoblot. (FIG. 6B) SiHa and C33A cells (1×10^6 per well) were seeded into a 6-well plate and allowed to incubate overnight. 200 μM of myricetin and 100 μM spinacine were added together with 4 μg/ml mitomycin C and incubated for 24 h. The resulting level of p53 was measured by ELISA, and the level of p53 found in untreated cells was set at 100%. […]
If this ability is due to inhibition of E6 functions, then an increase in the levels of caspase 8 and p53 should be observable in SiHa cells following treatment with myricetin and spinacine. To test this prediction, SiHa cells were treated with 50, 100, and 200 μM of myricetin or spinacine for 24 hr, and then measured the level of caspase 8 by immunoblot. […]
Cells (1×10^6) were collected and washed with PBS. […] Signals were measured using the Odyssey Infrared Imaging system (LI-COR Biosciences) and expressed in relative light units.

GST-E6/His-E6AP = molecular target: T1, GST-E6/His-E6AP (Human papillomavirus type 16, UniProt P03126); test: AlphaScreen bead-based assay, GST-E6/His-E6AP binding; design: species or system HPV 16
T1 construct: made in house
Experimental: (§1) FIGS. 2A-C are graphs providing data regarding inhibition of protein-protein interactions by 3-(1H-indol-1yl)propan-1-amine (1), three benzimidazole derivatives (2-4), and spinacine (5). Compounds, at the indicated concentrations (1.4 μM to 3.2 mM) were tested using a bead-based screening assay for their ability to inhibit three different protein/protein interactions: (FIG. 2A) GST-E6/His-caspase 8; (FIG. 2B) GST-E6/HisE6AP; and (FIG. 2C) GST-caspase 8/His-caspase 8. Binding in the presence of 1.4 μM of the test compound was set at 100%. Experiments were performed in triplicate, and error bars indicate the standard deviation.
To determine the dose-responsiveness of these five compounds, variable concentrations of those small molecules were first tested for their ability to inhibit E6/caspase binding. […] These molecules, which had been selected for their ability to interfere with E6/caspase 8 binding, were then tested to determine if they could also affect other interactions of E6, such as its binding to E6-associated protein (E6AP). The E6/E6AP interaction is required for the E6-mediated acceleration of p53 degradation (Huibregtse, J. M., M. Scheffner, and P. M. Howley, A cellular protein mediates association of p53 with the E6 oncoprotein of human papillomavirus types 16 or 18. The EMBO journal, 1991. 10(13): p. 4129-35).
(§2) Alpha-Screen™ technology was used to assess the interactions between GST-E6, GST-caspase 8, His-E6AP, and His-caspase 8. Binding assays were performed in white 384-well plates (Perkin-Elmer) in a total volume of 25 μl as previously described (Tungteakkhun, S. S., et al., The interaction between human papillomavirus type 16 and FADD is mediated by a novel E6 binding domain. Journal of virology, 2008. 82(19): p. 9600-14). Briefly, 5 μl (50 ng) of GST-E6 and 5 μl (87.5 ng) of His-caspase 8 were included in each reaction mixture with 5 μl blocking buffer (0.5 mg BSA, 0.5% Tween 20 in PBS) in the absence or presence of 10 μM of each test chemical. Members of the library were present at […] in DMSO. After a one-hour incubation of the mixture at room temperature, 5 μl donor beads and 5 μl acceptor beads (Perkin-Elmer) were added to each well according to the manufacturer's protocol. The mixture was incubated in the dark at room temperature overnight, and the emitted signal was detected using the Envision Multilabel plate reader (Perkin-Elmer). In the presence of test chemicals, the binding affinity was calculated as a percentage of the binding in the presence of carrier only (DMSO).

[2] = molecular target: T2, GST-caspase 8/His-caspase 8 (Homo sapiens, UniProt Q14790); test: AlphaScreen counter-screen, GST-caspase 8/His-caspase 8 binding; settings: for EC50 for GST-caspase 8/His-caspase 8 interaction: compounds tested 1.4 μM to 3.2 mM
T2 construct: pTriEx-Caspase-8 DED plasmids; fused on or other part: GST tag on one copy, His tag on the other (AlphaScreen bead handles)
Experimental: as §1
To ask whether this inhibition was specific, a counter-screening assay was employed the ability of candidates to inhibit the binding of GST-caspase 8 to His-caspase 8 was assessed; those that did were to be eliminated. In this counter-screening assay, the materials in each well were the same as in the primary screen, with the exception that GST-caspase 8 replaced GST-E6.
as §2

T2 sequence (Q14790 whole entry, the tested form may be a part): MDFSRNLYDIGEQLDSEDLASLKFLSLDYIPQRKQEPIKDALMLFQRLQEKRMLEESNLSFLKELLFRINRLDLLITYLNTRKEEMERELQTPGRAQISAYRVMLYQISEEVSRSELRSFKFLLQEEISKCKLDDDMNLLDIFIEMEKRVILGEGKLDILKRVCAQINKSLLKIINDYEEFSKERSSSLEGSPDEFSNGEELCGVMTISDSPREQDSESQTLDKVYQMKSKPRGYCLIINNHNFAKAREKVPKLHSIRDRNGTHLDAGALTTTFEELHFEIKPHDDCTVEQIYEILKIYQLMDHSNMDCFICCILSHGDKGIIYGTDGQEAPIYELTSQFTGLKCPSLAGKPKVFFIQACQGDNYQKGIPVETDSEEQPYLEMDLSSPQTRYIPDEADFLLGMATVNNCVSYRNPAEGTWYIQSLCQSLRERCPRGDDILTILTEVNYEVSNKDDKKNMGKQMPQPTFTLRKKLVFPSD
T1 sequence (P03126 whole entry): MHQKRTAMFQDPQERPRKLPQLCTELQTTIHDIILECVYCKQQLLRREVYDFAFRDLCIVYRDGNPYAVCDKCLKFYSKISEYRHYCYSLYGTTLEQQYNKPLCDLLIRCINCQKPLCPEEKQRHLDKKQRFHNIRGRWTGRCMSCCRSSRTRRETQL

`O=c1c(O)c(-c2cc(O)c(O)c(O)c2)oc2cc(O)cc(O)c12` [Myricetin, reference compound] was tested, and the “caspase 8 levels in SiHa cells (in words)” value [1] was “increase in caspase 8 levels at doses of 100 μM and 200 μM”.

For `OCn1cnc2ccccc21` [Compound 3, 1H-benzimidazole-1-methanol], the “EC50 for GST-E6/His-E6AP interaction” value (GST-E6/His-E6AP; bead-based assay, compounds tested 1.4 μM to 3.2 mM) was “No Inhibition” and the “EC50 for GST-caspase 8/His-caspase 8 interaction” value [2] was “No Inhibition”.

In the case of `O=C(O)C1Cc2[nH]cnc2CN1` (stereo not shown) [Compound 5, 4,5,6,7-Tetrahydro-1H-imidazo(4,5-c)pyridine-6-carboxylic acid], the “caspase 8 levels in SiHa cells (in words)” value [1] is reported as “increase in caspase 8 at doses from 50 to 200 μM”, the “inhibition of E6/E6AP interaction (in words)” value (GST-E6/His-E6AP; FIG. 2B) is reported as “could also inhibit the E6/E6AP interaction” and the “inhibition of caspase 8/caspase 8 interaction (in words)” value ([2]; FIG. 2C) is reported as “did not significantly inhibit”. For the same compound, the “EC50 for GST-caspase 8/His-caspase 8 interaction” value [2] was “No”.
